# Test results published in patent publication EP2582674B1 (Cymabay Therapeutics, Inc., priority 2010, dated 2011).
# Molecular target: T1, human GPR120 (Homo sapiens, UniProt Q5NUL3)
# T1 construct: host or cells: HEK293 cells co-expressing Gqi5
# T1 sequence (Q5NUL3 1-361): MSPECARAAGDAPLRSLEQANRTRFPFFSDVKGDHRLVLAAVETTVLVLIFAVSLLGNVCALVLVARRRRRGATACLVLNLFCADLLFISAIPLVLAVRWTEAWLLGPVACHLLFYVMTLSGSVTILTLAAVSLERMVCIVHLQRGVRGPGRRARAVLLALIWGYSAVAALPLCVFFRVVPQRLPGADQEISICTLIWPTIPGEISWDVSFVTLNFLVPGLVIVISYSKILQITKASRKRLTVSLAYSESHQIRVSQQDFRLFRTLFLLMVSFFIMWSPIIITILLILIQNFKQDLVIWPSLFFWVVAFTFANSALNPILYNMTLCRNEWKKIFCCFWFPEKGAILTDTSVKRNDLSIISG
# Experiment: Intracellular Ca2+ assay in human GPR120 stable cell line (FLIPR Calcium 4 dye, Flexstation)
# Assay type: cell-based
# Conditions: for activity at 5 µM: HEK293, % activity at 5 µM compared to the maximal activity of GW9508 at 6.7 µM (=100%), read-out: %Activity (GW9508 Reference Compound); for activity at 5 µM / activity at 2.5 µM / % Activity (Ex. 25 Reference Compound): HEK293 cells co-expressing Gqi5; for activity at 2.5 µM: HEK293, % activity at 2.5 µM compared to the maximal activity of the compound of Example 25 at 2.5 µM (=100%), read-out: % Activity (Ex. 25 Reference Compound); for EC50: eight concentrations from 0.00001 to 20 µM, changes (Max-Min) of fluorescence intensity; for % Activity (Ex. 25 Reference Compound): % activity at 2.5 µM compared to the maximal activity of the compound of Example 25 at 2.5 µM (=100%)
# Experimental: Human GPR120 stable cell line was purchased from Multispan Inc (26219 Eden Landing Road, Hayward, CA94545). This GPR120 cell line was generated in HEK293 cells co-expressing Gqi5. In this cell line, the Flag epitope tag (DYKDDDDK) was fused to the amino terminus of human GPR120 protein.
# The concentration of intracellular Ca^2+ was measured as described below. Human GPR120 cells were plated in 96 well plates (Poly-D-Lysine coated black/clear Plate, Greiner Bio-One) at 70,000 cells per well and cultured overnight in conditions of 37°C and 5% CO2. A Ca^2+ assay dye stock solution was prepared by adding 10 mL of assay buffer (HBSS/20mM HEPES, pH 7.4) to FLIPR Calcium 4 Assay Bulk Kit (Molecular Devices). The 10 mL of Ca^2+ assay dye solution was prepared by further diluting 0.5 mL of Ca^2+ assay dye stock solution with 10 mL of assay buffer. The medium of the cells was removed and immediately 100 µL of the Ca^2+ assay dye solution was dispensed into each well followed by incubation at 37°C and 5% CO2 for 50 minutes to incorporate the Ca^2+ dye into the cells. The cell plate was then placed in the Flexstation (Molecular Devices) for 20 minutes at 37°C. Compounds were dissolved in 100% DMSO and diluted to desired concentrations with assay buffer and placed in the Flexstation simultaneously with the cell plate for 20 minute incubation at 37°C prior to reading. Fluorescence intensity was measured immediately following compound addition (25 µL/well) on the Flexstation at an excitation wavelength of 485 nm and an emission wavelength of 525 with 515 nm auto cutoff. The resulting increase in fluorescence intensities corresponds to increases in intracellular Ca^2+ levels.
# Compounds were dissolved in 100% DMSO to a concentration of 20 mM to provide stock solutions. To determine activity against human GPR120, compounds were added with human GPR120 stably expressing cells (described above), at eight desired concentrations ranging from 0.00001 to 20 µM, in 96 well plates and fluorescence intensities were measured for 90 seconds with 2-second intervals. An EC50 value (concentration of the GPR120 agonist where 50% of the agonist's maximal activity is observed) was calculated using the changes (Max-Min) of fluorescence intensity.
# To determine percent activity for a tested compound, the fluorescence intensity value obtained at a particular concentration were compared to the maximal fluorescence intensity value obtained for reference compound GW9508 (4-[[(3-phenoxyphenyl)methyl]amino]benzene propanoic acid; British Journal of Pharmacology 2006 148, 619-628) or the compound of Example 25. When GW9508 was used as the reference compound, the maximal activity of GW9508 at 6.7µM was designated as 100% activity. When the compound of Example 25 was used as the reference compound, the maximal activity of the compound of Example 25 at 2.5 µM was designated as 100% activity. Typically, the GW9508 activity reached a maximum at a concentration of approximately 6.7 µM and typically the compound of Example 25 reached a maximum activity at approximately 2.5µM. […]
Compound,activity at 2.5 µM [%],also measured
"Cc1cc(CC(C)C(=O)O)ccc1OCc1cc(F)cc2c1OC(C)(C)C2 (centres unmarked) [Example 6, 3-(4-((5-fluoro-2,2-dimethyl-2,3-dihydrobenzofuran-7-yl)methoxy)-3-methylphenyl)-2-methylpropanoic acid]",,activity at 5 µM: 147%
"CC(Cc1ccc(COc2cccc3c2OC(C)(C)C3)c(F)c1)C(=O)O (centres unmarked) [Example 44, 3-(4-(((2,2-dimethyl-2,3-dihydrobenzofuran-7-yl)oxy)methyl)-3-fluorophenyl)-2-methylpropanoic acid]",157,EC50: 1 to 10 µM
"CC(C)Oc1cc(OCc2cc(F)cc3c2OC(C)(C)C3)ccc1CCC(=O)O [Example 115, 3-(4-((5-fluoro-2,2-dimethyl-2,3-dihydrobenzofuran-7-yl)methoxy)-2-isopropoxyphenyl)propanoic acid]",152,
"CC(Cc1cc(F)c(OCc2ccc(F)c3c2OC(C)(C)C3)c(F)c1)C(=O)O (centres unmarked) [Example 28, 3-(3,5-difluoro-4-((4-fluoro-2,2-dimethyl-2,3-dihydrobenzofuran-7-yl)methoxy)phenyl)-2-methylpropanoic acid]",,activity at 5 µM: 110%
"CC(CC(=O)O)c1cc(F)c(OCc2cc(Cl)cc3c2OC(C)(C)C3)c(F)c1 (centres unmarked) [Example 106, 3-(4-((5-chloro-2,2-dimethyl-2,3-dihydrobenzofuran-7-yl)methoxy)-3,5-difluorophenyl)butanoic acid]",155,
CC1Cc2cccc(COc3c(F)cc(CCC(=O)O)cc3F)c2O1 (centres unmarked) [Example 20],,activity at 5 µM: 138%
"COc1cc(CC(C)C(=O)O)ccc1OCc1cc(F)cc2c1OC(C)(C)C2 (centres unmarked) [Example 7, 3-(4-((5-fluoro-2,2-dimethyl-2,3-dihydrobenzofuran-7-yl)methoxy)-3-methoxyphenyl)-2-methylpropanoic acid]",,activity at 5 µM: 168%
"CC(C)Oc1ccc(Cl)cc1COc1ccc2c(c1)CCC2CC(=O)O (centres unmarked) [Example 258, 2-(5-((5-chloro-2-isopropoxybenzyl)oxy)-2,3-dihydro-1H-inden-1-yl)acetic acid]",140,
"CC(Cc1ccc(OCc2cc(Cl)cc3c2OC(C)(C)C3O)cc1)C(=O)O (centres unmarked) [Example 130, 3-(4-((5-chloro-3-hydroxy-2,2-dimethyl-2,3-dihydrobenzofuran-7-yl)methoxy)phenyl)-2-methylpropanoic acid]",104,EC50: 1 to 10 µM
"CC1(C)Cc2cc(F)cc(COc3c(F)cc(CC4CC4C(=O)O)cc3F)c2O1 (centres unmarked) [Example 184, 2-(3,5-difluoro-4-((5-fluoro-2,2-dimethyl-2,3-dihydrobenzofuran-7-yl)methoxy)benzyl)cyclopropanecarboxylic acid]",,% Activity (Ex. 25 Reference Compound): 97.04%
"CC1(C)Cc2c(C(F)(F)F)ccc(COc3c(F)cc(C4CC4C(=O)O)cc3F)c2O1 (centres unmarked) [Example 31, 2-(4-((2,2-dimethyl-4-(trifluoromethyl)-2,3-dihydrobenzofuran-7-yl)methoxy)-3,5-difluorophenyl)cyclopropanecarboxylic acid]",,activity at 5 µM: 150%
"COc1cc(CCC(=O)O)ccc1OCc1cc(F)cc2c1OC(C)(C)C2 [Example 173, 3-(4-((5-fluoro-2,2-dimethyl-2,3-dihydrobenzofuran-7-yl)methoxy)-3-methoxyphenyl)propanoic acid]",159,EC50: 1 to 10 µM
"CC1(C)Cc2cc(Cl)cc(COc3ccc(CCC(=O)O)c(-c4ccccc4)c3)c2O1 [Example 71, 3-(5-((5-chloro-2,2-dimethyl-2,3-dihydrobenzofuran-7-yl)methoxy)-[1,1'-biphenyl]-2-yl)propanoic acid]",134,
"CC(CCc1ccc(OCc2cc(F)cc3c2OC(C)(C)C3)cc1)C(=O)O (centres unmarked) [Example 171, 4-(4-((5-fluoro-2,2-dimethyl-2,3-dihydrobenzofuran-7-yl)methoxy)phenyl)-2-methylbutanoic acid]",99,EC50: 1 to 10 µM
"CC(Cc1ccc(OCc2cc(-n3cnnn3)cc3c2OC(C)(C)C3)cc1)C(=O)O (centres unmarked) [Example 90, 3-(4-((2,2-dimethyl-5-(1H-tetrazol-1-yl)-2,3-dihydrobenzofuran-7-yl)methoxy)phenyl)-2-methylpropanoic acid]",75.9,
"Cc1cc2cccc(COc3ccc4c(c3)CCC4CC(=O)O)c2s1 (centres unmarked) [Example 152, 2-(5-((2-methylbenzo[b]thiophen-7-yl)methoxy)-2,3-dihydro-1H-inden-1-yl)acetic acid]",83.8,
"[2H]C1([2H])c2cc(Cl)cc(COc3ccc(CC(C)C(=O)O)cc3F)c2OC1(C)C (centres unmarked) [Example 146, 3-(4-((3,3-dideuterio-5-chloro-2,2-dimethyl-2,3-dihydrobenzofuran-7-yl)methoxy)-3-fluorophenyl)-2-methylpropanoic acid]",141,
"CC(Cc1ccc(OCc2ccc(F)c3c2CC(C)(C)O3)cc1)C(=O)O (centres unmarked) [Example 91, 3-(4-((7-fluoro-2,2-dimethyl-2,3-dihydrobenzofuran-4-yl)methoxy)phenyl)-2-methylpropanoic acid]",121,
"CC(C)Oc1ccc(Cl)cc1COc1cc2c(cc1F)C(CC(=O)O)CC2 (centres unmarked) [Example 257, 2-(5-((5-chloro-2-isopropoxybenzyl)oxy)-6-fluoro-2,3-dihydro-1H-inden-1-yl)acetic acid]",125,
"CC1(C)Cc2c(COc3c(F)cc(C4CC4C(=O)O)cc3F)cccc2O1 (centres unmarked) [Example 22, 2-(4-((2,2-dimethyl-2,3-dihydrobenzofuran-4-yl)methoxy)-3,5-difluorophenyl) cyclopropanecarboxylic acid]",,activity at 5 µM: 126%
"2-(4-((5-fluoro-3H-spiro[benzofuran-2,1'-cyclopentane]-7-yl)methoxy)phenyl)cyclopropanecarboxylic acid [Example 165]",,% Activity (Ex. 25 Reference Compound): 158.08%
"CC1(C)Cc2cc(F)cc(COc3ccc(CCC(=O)O)c4c3CCCC4)c2O1 [Example 218, 3-(4-((5-fluoro-2,2-dimethyl-2,3-dihydrobenzofuran-7-yl)methoxy)-5,6,7,8-tetrahydronaphthalen-1-yl)propanoic acid]",114,
"CC1(C)Cc2cc(Cl)cc(COc3c(F)cc(C4CC4CC(=O)O)cc3F)c2O1 (centres unmarked) [Example 41, 2-(2-(4-((5-chloro-2,2-dimethyl-2,3-dihydrobenzofuran-7-yl)methoxy)-3,5-difluorophenyl)cyclopropyl)acetic acid]",116,
"CC(Cc1ccc(OCc2cc(OC(F)(F)F)cc3c2OC(C)(C)C3)cc1)C(=O)O (centres unmarked) [Example 124, 3-(4-((2,2-dimethyl-5-(trifluoromethoxy)-2,3-dihydrobenzofuran-7-yl)methoxy)phenyl)-2-methylpropanoic acid]",132,EC50: ≤ 1 µM
"Cc1cc(CCC(=O)O)c(C)c(C)c1OCc1cc(F)cc2c1OC(C)(C)C2 [Example 254, 3-(4-((5-fluoro-2,2-dimethyl-2,3-dihydrobenzofuran-7-yl)methoxy)-2,3,5-trimethylphenyl) propanoic acid]",146,
"CC1(C)Cc2cc(Cl)cc(COc3ccccc3CCC(=O)O)c2O1 [Example 250, 3-(2-((5-chloro-2,2-dimethyl-2,3-dihydrobenzofuran-7-yl)methoxy)phenyl)propanoic acid]",10.2,EC50: > 10 µM
